ChEMBL document CHEMBL1201862, “PubChem BioAssay data set” (2004)
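Dose response: 5 concentrations. Exposure: 48 h. Format: 96-well plates. Endpoint: linear interpolation; highest concentration if not reached. GI50 is the concentration that inhibits growth by half.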 Calls of active or inactive are those of the source. Rule as the data show it: active = GI50 up to about 1.1 µM and inactive = higher.

Legend:
Experiment in all cases: growth of human tumour cells (NCI), 48 h
[1] = tested on: UACC-257
[2] = tested on: SW-620
[3] = tested on: A498
[4] = tested on: HCT-116
[5] = tested on: IGROV-1
[6] = tested on: SNB-19
[7] = tested on: TK-10
[8] = tested on: LXFL 529
[9] = tested on: M14
[10] = tested on: RPMI-8226
[11] = tested on: 786-0
[12] = tested on: SF-268
[13] = tested on: UACC-62
[14] = tested on: RXF 631
[15] = tested on: HCT-15
[16] = tested on: SR
[17] = tested on: KM-20L2
[18] = tested on: KM12
[19] = tested on: OVCAR-8
[20] = tested on: ACHN
[21] = tested on: U-251
[22] = tested on: SK-MEL-28
[23] = tested on: SK-OV-3
[24] = tested on: K562
[25] = tested on: DLD-1
[26] = tested on: OVCAR-5
[27] = tested on: DMS-273
[28] = tested on: SK-MEL-5
[29] = tested on: HL-60
[30] = tested on: NCI-H460
[31] = tested on: CCRF-CEM
[32] = tested on: HOP-18
[33] = tested on: CAKI-1
[34] = tested on: SF-295
[35] = tested on: NCI-H23
[36] = tested on: OVCAR-3
[37] = tested on: DMS-114
[38] = tested on: EKVX
[39] = tested on: NCI-H522
[40] = tested on: MOLT-4
[41] = tested on: XF498
[42] = tested on: SN12C
[43] = tested on: UO-31
[44] = tested on: HCC 2998
[45] = tested on: HOP-92
[46] = tested on: A549
[47] = tested on: HOP-62
[48] = tested on: M19-MEL
[49] = tested on: HT-29
[50] = tested on: SF-539
[51] = tested on: LOX IMVI
[52] = tested on: SNB-75
[53] = tested on: SNB-78
[54] = tested on: OVCAR-4
[55] = tested on: SK-MEL-2
[56] = tested on: Malme-3M
[57] = tested on: COLO 205
[58] = tested on: RXF 393

CN(C)CC(=O)N1CCc2c([nH]c3ccccc23)C1c1cccnc1 (stereo not given) was tested, and the GI50 [1] was > 100 µM (inactive), the GI50 [2] was > 100 µM (inactive) and the GI50 [3] was > 100 µM (inactive). The GI50 [4] was > 100 µM (inactive), the GI50 [5] was > 100 µM (inactive) and the GI50 [6] was > 100 µM (inactive). For the same compound, the GI50 [7] was > 100 µM (inactive), the GI50 [8] was > 100 µM (inactive) and the GI50 [9] was > 100 µM (inactive). For the same compound, the GI50 [10] was > 100 µM (inactive), the GI50 [11] was > 100 µM (inactive) and the GI50 [12] was > 100 µM (inactive). For the same compound, the GI50 [13] was > 100 µM (inactive), the GI50 [14] was > 100 µM (inactive) and the GI50 [15] was over 100 µM. For the same compound, the GI50 [16] was > 100 µM (inactive), the GI50 [17] was > 100 µM (inactive) and the GI50 [18] was > 100 µM (inactive). The GI50 [19] was > 100 µM (inactive), the GI50 [20] was > 100 µM (inactive) and the GI50 [21] was > 100 µM (inactive). The GI50 [22] was > 100 µM (inactive), the GI50 [23] was > 100 µM (inactive) and the GI50 [24] was > 100 µM (inactive). The GI50 [25] was > 100 µM (inactive), the GI50 [26] was > 100 µM (inactive) and the GI50 [27] was 0.0187 µM (active). For the same compound, the GI50 [28] was > 100 µM (inactive), the GI50 [29] was > 100 µM (inactive) and the GI50 [30] was > 100 µM (inactive). For the same compound, the GI50 [31] was > 100 µM (inactive), the GI50 [32] was > 100 µM (inactive) and the GI50 [33] was > 100 µM (inactive). For the same compound, the GI50 [34] was 0.0498 µM (active), the GI50 [35] was > 100 µM (inactive) and the GI50 [36] was > 100 µM (inactive). The GI50 [37] was > 100 µM (inactive), the GI50 [38] was > 100 µM (inactive) and the GI50 [39] was > 100 µM (inactive). The GI50 [40] was > 100 µM (inactive), the GI50 [41] was > 100 µM (inactive) and the GI50 [42] was > 100 µM (inactive). The GI50 [43] was 22.5 µM (inactive), the GI50 [44] was > 100 µM (inactive) and the GI50 [45] was 26.9 µM (inactive). For the same compound, the GI50 [46] was > 100 µM (inactive), the GI50 [47] was > 100 µM (inactive) and the GI50 [48] was > 100 µM (inactive). The GI50 [49] was > 100 µM (inactive), the GI50 [50] was > 100 µM (inactive) and the GI50 [51] was > 100 µM (inactive). The GI50 [52] was 65 µM (inactive), the GI50 [53] was > 100 µM (inactive) and the GI50 [54] was > 100 µM (inactive).
C[C@@H]1C[C@@H]2C(=O)N(c3ccccc3)C(=O)[C@@H]2c2[nH]c3ccc(Br)cc3c21 was tested, and the GI50 [1] was > 100 µM (inactive), the GI50 [2] was 35.5 µM (inactive) and the GI50 [3] was 68.4 µM (inactive). For the same compound, the GI50 [4] was 30.2 µM (inactive), the GI50 [5] was 87.1 µM (inactive) and the GI50 [6] was 29.6 µM (inactive). The GI50 [7] was 68.9 µM (inactive), the GI50 [8] was 37.6 µM (inactive) and the GI50 [9] was 75.2 µM (inactive). For the same compound, the GI50 [11] was 39.2 µM (inactive), the GI50 [12] was 41.5 µM (inactive) and the GI50 [55] was 55.3 µM (inactive). For the same compound, the GI50 [13] was 84.7 µM (inactive), the GI50 [14] was 28.8 µM (inactive) and the GI50 [56] was 39.4 µM (inactive). The GI50 [15] was 34.3 µM, the GI50 [16] was 42 µM (inactive) and the GI50 [17] was > 100 µM (inactive). The GI50 [18] was 25.2 µM (inactive), the GI50 [19] was 21.8 µM (inactive) and the GI50 [20] was 45.1 µM (inactive). For the same compound, the GI50 [21] was 13.5 µM (inactive), the GI50 [22] was > 100 µM (inactive) and the GI50 [23] was 22.3 µM (inactive). The GI50 [24] was 49.1 µM (inactive), the GI50 [25] was 44.2 µM (inactive) and the GI50 [26] was > 100 µM (inactive). The GI50 [27] was > 100 µM (inactive), the GI50 [28] was 50.1 µM (inactive) and the GI50 [29] was 26.8 µM (inactive). For the same compound, the GI50 [30] was 42.3 µM (inactive), the GI50 [57] was > 100 µM (inactive) and the GI50 [31] was > 100 µM (inactive). The GI50 [32] was 24.1 µM (inactive), the GI50 [33] was 27.4 µM (inactive) and the GI50 [34] was 32.4 µM (inactive). For the same compound, the GI50 [35] was 89.7 µM (inactive), the GI50 [58] was 43.4 µM (inactive) and the GI50 [36] was 23.7 µM (inactive). For the same compound, the GI50 [37] was 53 µM (inactive), the GI50 [38] was 36.9 µM (inactive) and the GI50 [39] was 24 µM (inactive). The GI50 [40] was 25 µM (inactive), the GI50 [41] was 26.1 µM (inactive) and the GI50 [42] was 41 µM (inactive). For the same compound, the GI50 [43] was 45.9 µM (inactive), the GI50 [44] was 51.1 µM (inactive) and the GI50 [45] was 27.6 µM (inactive). The GI50 [46] was 33.6 µM (inactive), the GI50 [47] was 23.3 µM (inactive) and the GI50 [48] was 70.8 µM (inactive). The GI50 [50] was 65.8 µM (inactive), the GI50 [51] was 96.8 µM (inactive) and the GI50 [52] was 20.2 µM (inactive). For the same compound, the GI50 [53] was 25.1 µM (inactive) and the GI50 [54] was 21.2 µM (inactive).
